Results: article PMC10435460, “Ligand recognition and G protein coupling of the human itch receptor MRGPRX1” (Nature Communications, 2023)
Like-named read-outs stand apart in the source and are kept apart here. Ends that are not written are not given here.

How the values were obtained:
MRGPRX1 [1] = target: T1, MRGPRX1 (Homo sapiens, UniProt Q96LB2); type: cell-based; design: Emax: unit not given here; settings: for Δpec50: Fig 3d, CNF-Tx2 mutant peptide vs CNF-Tx2 WT; for Emax: Suppl Fig 9a, CNF-Tx2 WT and mutant peptides
T1 construct: we fused a BRIL tag at the N-terminus of full-length wild-type MRGPRX1; FLAG; expressed in transfected cells; host or cells: HEK293
Description: (§1) Human Embryonic Kidney 293 (HEK293) cells were obtained from the Cell Resource Center of Shanghai Institute for Biological Sciences (Chinese Academy of Sciences, Shanghai, China) and cultured in DMEM with 10% FBS for functional studies. Transient transfection in the current study was performed with Lipofectamine 2000 (Invitrogen), according to the manufacturer’s instructions. For studying the peptide-induced G-protein activation through MRGPRX1, G-protein BRET probes were generated according to previous publications[13],[30],[31]. HEK293 cells were transfected with plasmids MRGPRX1 and G-protein probes. After 24 h, cells were reseeded into a 96-well plate with a density of 30,000-50,000 cells per well and incubated for an additional 24 h at 37 °C. For peptide-stimulated activity measurement, the BRET signal between Rluc8 and GFP2 was recorded after the addition of peptide ligands (final concentration:10^−10 – 10^−3 M) and coelenterazine 400a. The BRET signal was calculated as the ratio of the GFP2 emission to the Rluc8 emission.

MRGPRX1 [2] = target: T1, MRGPRX1; assay: Ligand bias factor (β value), Gi vs Gq, BAM8-22 as reference; type: cell-based; settings: Suppl Fig 11f-h
Description: as §1, with “emission. […]” for “emission.”
are presented as the mean ± SEM (n=3). All data were analyzed by two-sided one-way ANOVA with Turkey test. […] Both CNF-Tx2 and Chloroquine were assessed for Gi signaling (f) and Gq signaling (g). The bias factor (β value) of CNF-Tx2 and Chloroquine was calculated using BAM8-22 as the reference.
R3c). The β value was calculated according to formulas. […]

MRGPRX2 = assay: Gαi-Gγ dissociation assay (BRET); type: cell-based, human; settings: Fig 1e
Source text: Fig. 1 Cryo-EM structure of MRGPRX1-Gi1/Gq complexes. a Cryo-EM density map of the BAM8-22-MRGPRX1-Gi1/Gq complexes and CNF-Tx2-MRGPRX1-Gi1 complex. b EM density maps of BAM8-22 in MRGPRX1-Gi1/Gq complexes and CNF-Tx2 in MRGPRX1-Gi1 complex. BAM8-22 in MRGPRX1-Gi1/Gq complexes, hot pink/cyan; CNF-Tx2, light pink; MRGPRX1, cornflower blue, salmon, and medium aquamarine from left to right; Gαi, dark orange; Gαq, yellow; Gβ, wheat; Gγ, light blue; scFv16 (single-chain variable fragment), gray. c Cut-away view of the ligand-binding pocket in the BAM8-22-MRGPRX1-Gi1/Gq, CNF-Tx2-MRGPRX1-Gi1, PAMP-12-MRGPRX2-Gi1 and KCA-CB1-Gi1 complexes. d The binding modes of the peptide agonists of MRGPRX1 compared with MRGPRX2. e The selectivity of different ligands for MRGPRX1 and MRGPRX2 was evaluated using Gαi-Gγ dissociation assay. Data are mean ± SEM of three independent experiments (n = 3). ΔBRET indicates the difference between the BRET signal recorded from cells treated with ligand and that from cells treated with vehicle.
Human Embryonic Kidney 293 (HEK293) cells were obtained from the Cell Resource Center of Shanghai Institute for Biological Sciences (Chinese Academy of Sciences, Shanghai, China) and cultured in DMEM with 10% FBS for functional studies. […] The BRET signal was calculated as the ratio of the GFP2 emission to the Rluc8 emission.

T1 sequence (Q96LB2 whole entry, the tested form may be a part): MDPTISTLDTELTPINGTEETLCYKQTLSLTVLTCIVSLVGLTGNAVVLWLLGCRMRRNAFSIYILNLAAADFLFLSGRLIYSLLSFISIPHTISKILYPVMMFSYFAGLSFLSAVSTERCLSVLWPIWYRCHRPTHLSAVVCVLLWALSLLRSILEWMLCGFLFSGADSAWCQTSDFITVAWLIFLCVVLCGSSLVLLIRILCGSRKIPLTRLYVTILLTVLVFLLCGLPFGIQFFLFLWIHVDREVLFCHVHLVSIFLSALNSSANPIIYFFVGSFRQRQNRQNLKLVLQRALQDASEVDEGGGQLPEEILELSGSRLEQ

“Hemoglobin b-chain(34-42): hemoglobin β-chain fragment, peptide ligand of MRGPRX1 (VVYPWTQRF; UniProt P68871 34-42, looked up, fragment) [reference compound]” was tested, and the “potency and efficacy at MRGPRX1” value (MRGPRX1 [1]; Suppl Fig 11c) was “reasonable potency and efficacy”.

In the case of “HSGILLAWSGPRNRF-NH2 (C-terminus assumed) [ΔVRI]”, the Δpec50 (MRGPRX1 [1]; replicate 2) is reported as -0.3933, the Δpec50 (MRGPRX1 [1]; replicate 3) is reported as -0.1993 and the Emax (MRGPRX1 [1]; replicate 1) is reported as 5.805. For the same compound, the Emax (MRGPRX1 [1]; replicate 2) was 0.1588, the Emax (MRGPRX1 [1]; replicate 3) was -0.003279 and the “effect of C-terminal truncation on MRGPRX1 activity” value (MRGPRX1 [1]; compared to CNF-Tx2 wide-type peptide, Fig R4) was “almost abolished the activity of MRGPRX1”.

For `CCN(CC)CCCC(C)Nc1ccnc2cc(Cl)ccc12` (stereo not shown) [Chloroquine, chloroquine], the “bias property, Gi vs Gq” value (MRGPRX1 [2]) was “Gq bias ligand”.

In the case of “bovine adrenal medulla peptide (BAM) 8-22 [BAM8-22]”, the “recognition by MRGPRX2” value (MRGPRX2) is reported as “cannot be recognized by MRGPRX2”.

In the case of “HSGILLAWSGPRNRAVRI-NH2 (C-terminus assumed) [F15A]”, the Δpec50 (MRGPRX1 [1]; replicate 2) is reported as -6.871, the Δpec50 (MRGPRX1 [1]; replicate 3) is reported as -1.837 and the Emax (MRGPRX1 [1]; replicate 1) is reported as -0.06154. The Emax (MRGPRX1 [1]; replicate 3) was -0.06172.
